Experiments:
Assay type in all cases: cell-based, human
monocyte IL-6 production = test: NB-monocyte co-culture, IL-6 ELISA of supernatant; conditions: 24 hours
Experimental: (§1) Monocytes were directly cultured with wild-type or TNF, TNFR1, TNFR2 KO NB cell lines in ULA plates for 24 hours. Activation of NF-kB in monocytes and NB was measured by flow cytometry and cytokine production measured by ELISA from co-culture supernatant. To evaluate the contact-dependence of monocyte activation by NB, monocytes were cultured in ULA plates with seven-day NB conditioned medium mixed 1:1 with complete monocyte medium for 24 hours and analyzed for IL-6 production. To assess the growth advantage of NB cultured with monocytes, NB-luc cell lines and monocytes were seeded in tissue culture-treated white 96-well plates (1:1 ratio) and cultured for four days. Luminescence was measured using a TECAN Spark plate reader (TECAN). To evaluate changes in proliferation, NB was pulsed for 10 minutes in CellTrace Violet (2 μM, Invitrogen) and seeded at 100,000 cells per well in a 12-well tissue culture-treated plate. Monocytes were added directly to the NB monolayer at a density of 100,000 per well and incubated for four days. CellTrace Violet expression was analyzed by flow cytometry.
Cytokines released by monocytes were detected within co-culture supernatants using the Human TNF-alpha Quantikine ELISA Kit (TNFα, R&D Systems) and the Human IL-6 Quantikine ELISA Kit (IL-6, R&D Systems) according to manufacturer's guidelines. ELISA plates were read using a TECAN Spark plate reader (TECAN). Global cytokine regulation was evaluated using a custom Luminex panel containing the following cytokines: CX3CL1, CXCL10, EGF, FGF-2, Flt3L, G-CSF, GM-CSF, IL-1α, IL-1β, IL-1Ra, IL-4, IL-6, IL-8, IL-10, IL-12 (p40), IL-12 (p′70), M-CSF, MCP-1, MCP-3, MDC, MIP-1α, MIP-1β, TGFα, TNFα, TNFβ, and VEGF-A (Human Cytokine Panel A, Millipore-Sigma).

SK-N-AS-luc = test: NB luminescence viability in monocyte co-culture; conditions: SK-N-AS-luc + monocytes, 10 μg/mL etanercept, 72 hours (FIG. 8B)
Experimental: (FIG. 8A) Luciferase expressing CHLA-255-luc and SK-NAS-luc were cultured in 1-16,000 pg/mL rhTNF for 48 hours and viability of the cells was measured by luminescence. Data was normalized to untreated control and graphed as % Viability versus Log10 of TNF concentration.
as §1, with “To assess the growth advantage of NB cultured with monocytes, NB-luc cell lines and monocytes were seeded in tissue culture-treated white 96-well plates (1:1 ratio) and cultured for four days.” left out

CHLA-255 = test: CellTrace Violet proliferation of NB co-cultured with monocytes; conditions: CHLA-255 CTV-pulsed + monocytes, 10 μg/mL etanercept, four days
Experimental: (15A) TNFα level within co-culture supernatant was determined by TNFα ELISA. Mean TNFα concentration±SD of representative data from two monocyte donors run in triplicate. (FIG. 15B) Supernatant IL-6 levels were determined by ELISA. Mean IL-6 concentration±SD of representative data from two monocyte donors run in triplicate (FIG. 15C) Intracellular IκBα expression level within CD14+GD2− monocyte population was determined by flow cytometry and IκBα MFI was normalized to monocyte only control. Mean normalized IκBα MFI±SD and representative from experiments with two monocyte donors run in triplicate. (FIG. 15D) Intracellular IκBα expression level within CD14-GD2+NB population was determined by flow cytometry and IκBα MFI was normalized to NB only control. […] NB luminescence was used to evaluate relative viability of cell line. Results are normalized mean luminescence±SD, n=6 replicates per condition. […] Cells undergoing multiple (2+) divisions were quantified as a percentage of total cells and normalized to NB (0) and Ctrl (1). […]
Monocytes were directly cultured with wild-type or TNF, TNFR1, TNFR2 KO NB cell lines in ULA plates for 24 hours. Activation of NF-kB in monocytes and NB was measured by flow cytometry and cytokine production measured by ELISA from co-culture supernatant. […] Luminescence was measured using a TECAN Spark plate reader (TECAN). […]

etanercept was tested, and the IL-6 production (monocyte IL-6 production; CHLA-255 + monocytes, 10 μg/mL etanercept, vs IgG control (FIG. 15B)) was “almost entirely blocked”, the “IL-6 level in co-culture supernatant” value (monocyte IL-6 production; SK-N-AS + monocytes, vs IgG control) was “decrease” and the “cell death caused by monocyte-produced TNF (luminescence)” value (SK-N-AS-luc) was “rescued”. For the same substance, the “reduction of monocyte-induced increase in NB cells undergoing multiple divisions” value (CHLA-255) was 56%.
